Results from patent publication US6642222B2, “Pyrano, piperidino, and thiopyrano compounds and methods of use” (Abbott Laboratories, priority 1998, dated 2003).

Experiments:
Landrace Pig Bladder = assay: Functional potassium channel opening activity in isolated bladder strips (field-stimulated twitch); details: for Index: ED50 for P1075 divided by ED50 for the test agonist, averaged over tissues; for Efficacy (% P1075) / Emax: maximal efficacy relative to P1075, field stimulated bladder strips; for pD2 / EC50: negative logarithm of ED50; for Emax / EC50: Sus scrofa; for EC50: read-out: pD2 (converted)
Description: Compounds were evaluated for functional potassium channel opening activity using tissue strips obtained from Landrace pig bladders. Landrace pig bladders were obtained from female Landrace pigs of 9-30 kg. Landrace pigs were euthanized with an intraperitoneal injection of pentobarbital solution, Somlethal®, J. A. Webster Inc. Sterling Mass. The entire bladder was removed and immediately placed into Krebs Ringer bicarbonate solution (composition, mM: NaCl, 120; […] Dextrose, 4.7; […] Propranolol (0.004 mM) was included in all of the assays to block β-adrenoceptors. The trigonal and dome portions were […], Strips 3-5 […] (mm) wide and 20 mm long were prepared from the remaining tissue cut in a circular fashion. The mucosal layer was removed. One end was fixed to a stationary glass rod and the other to a Grass FT03 transducer at a basal preload of 1.0 g. Two parallel platinum electrodes were included in the stationary glass trod to provide field stimulation of 0.05 Hz, 0.5 milli-seconds at 20 volts. […] Tissues were allowed to equilibrate for at least 60 minutes and primed with 80 mM KCl. A control concentration response curve (cumulative) was generated for each tissue using the potassium channel opener […] as the control agonist. […] After a 60 minute rinsing period, a concentration response curve (cumulative) was generated for the test agonist in the same fashion as that used for the control agonist […]. The maximal efficacy of each compounds (expressed as % relative to […]) is reported. The amount of agent necessary to cause 50% of the agent's maximal response (ED50) was calculated using “ALLFIT” (DeLean et al., Am. J. […] Agonist potencies were also expressed as an index relative to […]. The index was calculated by dividing the ED50 for […] by the ED50 for the test agonist in a given tissue. Each tissue was used for only one test agonist, and the indices obtained from each tissue were averaged to provide an average index of potency.

[1] = tested on: Guinea-Pig Bladder (GPB) Cells; assay: Membrane Hyperpolarization (MHP) assay, DiBAC(4)3 / FLIPR; details: for Maximal Response (% P1075): maximal steady-state hyperpolarization, normalized to 10 μM P1075 (100%); for EC50: membrane hyperpolarization, GPB cells; for Emax: read-out: Maximal Response (% P1075), maximal steady-state hyperpolarization, normalized to 10 μM P1075 (100%)
Description: Compounds were evaluated for potassium channel opening activity using primary cultured guinea-pig urinary bladder (GPB) cells.
For the preparation of urinary bladder smooth muscle cells, urinary bladders were removed from male guinea-pigs (Hartley, Charles River, Wilmington, Mass.) weighing 300-400 grams (g) and placed in ice-cold Ca^2+-free Krebs solution (Composition, millimolar (mM): KCl, 2.7; KH2PO4, 1.5; NaCl, 75; Na2HPO4, 9.6; Na2HPO4.7H2O, 8; MgSO4, 2; glucose, 5; HEPES, 10; pH 7.4). Cells were isolated by enzymatic dissociation (Klockner, U. and Isenberg, G., Pflugers Arch. (1985), 405, 329-339). The bladder was cut into small sections and incubated in 5 milliliters (mL) of the Kreb's solution containing 1 milligram per milliliter (mg/mL) of collagenase (Sigma, St. Louis, Mo.) and 0.2 mg/mL of pronase (Calbiochem, La Jolla, Calif.) with continuous stirring in a cell incubator for 30 minutes. The mixture was then centrifuged at 1300× g for 5 minutes, and the pellet resuspended in Dulbecco's phosphate buffered saline (PBS) (GIBCO, Gaithersburg, Md.) and recentrifuged to remove residual enzyme. The cell pellet was resuspended in 5 mL growth media (composition: Dulbecco's modified Eagle's medium supplemented with 10% fetal bovine serum, 100 units/mL penicillin, 100 units/mL streptomycin and 0.25 mg/mL amphotericin B) and further dissociated by pipetting the suspension through a flame-polished Pasteur pipette and passing it through a polypropylene mesh membrane (Spectrum, Houston, Tex.). The cell density was adjusted to 100,000 cells/mL by resuspension in growth media. Cells were plated in clear-bottomed black 96-well plates (Packard) for membrane potential studies at a density of 20,000 cells/well and maintained in a cell incubator with 90% air: 10% CO2 until confluent. Cells were confirmed to be of smooth muscle type by cytoskeletal staining using a monoclonal mouse anti human-α-smooth muscle actin (Biomeda, Foster City, Calif.).
Functional activity at potassium channels was measured by evaluating changes in membrane potential using the bis-oxonol dye DiBAC(4)3 (Molecular Probes) in a 96-well cell-based kinetic assay system using a Fluorescent Imaging Plate Reader (FLIPR) (K. S. Schroeder et al., J. Biomed. Screen., v. 1 pp. 75-81 (1996)). DiBAC(4)3 is an anionic potentiometric probe which partitions between cells and extracellular solution in a membrane potential-dependent manner. With increasing membrane potential (for example, K^+ depolarization), the probe further partitions into the cell; this is measured as an increase in fluorescence due to dye interaction with intracellular lipids and proteins. Conversely, decreasing membrane potential (hyperpolarization by potassium channel openers) evokes a decrease in fluorescence.
Confluent guinea-pig urinary bladder cells cultured in black clear-bottomed 96-well plates were rinsed twice with 200 mL assay buffer (composition, mM: HEPES, 20; NaCl, 120; KCl, 2; CaCl2, 2; MgCl2, 1; glucose, 5; pH 7.4 at 25° C.) containing 5 μM DiBAC(4)3 and incubated with 180 mL of the buffer in a cell incubator for 30 minutes at 37° C. to ensure dye distribution across the membrane. After recording the baseline fluorescence for 5 minutes, the reference or test compounds, prepared at 10 times the concentration in the assay buffer, were added directly to the wells. Changes in fluorescence were monitored for an additional 25 minutes.
Routinely, five concentrations of P1075 or test compounds (log or half-log dilutions) were evaluated and the maximal steady-state hyperpolarization values (expressed as % relative to P1075) plotted as a function of concentration. The EC50 (concentration that elicites 50% of the maximal response for the test sample) values were calculated by non-linear regression analysis using a four parameter sigmoidal equation. The maximal micromolar EC50 response of each compound (expressed as % relative to P1075) is reported.

| Structure (SMILES) | Index (Landrace Pig Bladder) | Efficacy (% P1075) (Landrace Pig Bladder) | pD2 (Landrace Pig Bladder) | Maximal Response (% P1075) [1] [% P1075] | EC50 [1] [nM] | further results |
| --- | --- | --- | --- | --- | --- | --- |
| C[C@H]1OCC2=C(C1=O)[C@H](c1ccc(F)c(Br)c1)C1=C(COC1=O)N2 (relative stereo) [Example 85, (cis)-9-(3-bromo-4-fluorophenyl)-7-methyl-5,9-dihydro-3H-furo[3,4-b]pyrano[4,3-e]pyridine-1,8(4H,7H)-dione] | – | – | – | – | – | melting point: 234 to 239 °C |
| C[C@@H]1OCC(=O)C2=C1NC1=C(C(=O)OC1)[C@H]2c1ccc(F)c(Br)c1 (relative stereo) [Example 89, (cis)-9-(3-bromo-4-fluorophenyl)-5-methyl-5,9-dihydro-3H-furo[3,4-b]pyrano[4,3-e]pyridine-1,8(4H,7H)-dione] | – | – | – | – | – | melting point: 260 to 263 °C |
| C[C@@H]1OC(=O)C2=C1NC1=C(C(=O)COC1)[C@H]2c1ccc(F)c(Br)c1 (relative stereo) [Example 91, (cis)-9-(3-bromo-4-fluorophenyl)-3-methyl-5,9-dihydro-3H-furo[3,4-b]pyrano[4,3-e]pyridine-1,8(4H,7H)-dione] | – | – | – | – | – | melting point: 213 to 216 °C |
| C[C@@H]1OC(=O)C2=C1NC1=C(C(=O)COC1)[C@H]2c1ccc(F)c(Br)c1 (relative stereo) [Example 100, (cis)-9-(3-bromo-4-fluorophenyl)-3-methyl-5,9-dihydro-3H-furo[3,4-b]pyrano[4,3-e]pyridine-1,8(4H,7H)-dione] | – | – | – | – | – | melting point: 230 to 233 °C |
| CCC1OC(=O)C2=C1NC1=C(C(=O)COC1)C2c1ccc(F)c(Br)c1 (single isomer, unassigned) [Example 95, 9-(3-bromo-4-fluorophenyl)-3-ethyl-5,9-dihydro-3H-furo[3,4-b]pyrano[4,3-e]pyridine-1,8(4H,7H)-dione] | – | – | – | – | – | melting point: 161 to 162 °C |
| O=C1COCC2=C1C(c1ccc(Cl)c(Cl)c1)C1=C(COCC1=O)N2 [Example 33, 5-(3,4-dichlorophenyl)-5,10-dihydro-1H,3H-dipyrano[3,4-b:4,3-e]pyridine-4,6(7H,9H)-dione] | 0.27 | 93 | 5.9 | 92 | 3.4 | – |
| O=C1COCC2=C1C(c1ccc3nonc3c1)C1=C(COCC1=O)N2 [Example 34, 5-(2,1,3-benzoxadiazol-5-yl)-5,10-dihydro-1H,3H-dipyrano[3,4-b:4,3-e]pyridine-4,6(7H,9H)-dione] | 0.96 | 93 | 7.0 | 88 | 91 | – |
| O=C1COCC2=C1C(c1ccc([N+](=O)[O-])s1)C1=C(COCC1=O)N2 [Example 35, 5-(5-nitro-2-thienyl)-5,10-dihydro-1H,3H-dipyrano[3,4-b:4,3-e]pyridine-4,6(7H,9H)-dione] | 1.8 | 100 | 7.4 | 98 | 25 | – |
| O=C1COCC2=C1C(c1csc([N+](=O)[O-])c1)C1=C(COCC1=O)N2 [Example 36, 5-(5-nitro-3-thienyl)-5,10-dihydro-1H,3H-dipyrano[3,4-b:4,3-e]pyridine-4,6(7H,9H)-dione] | 0.24 | 100 | 6.5 | 98 | 82 | – |
| O=C1COCC2=C1C(c1ccc(F)c(I)c1)C1=C(CCS1(=O)=O)N2 (stereo not drawn) [Example 37, 9-(4-fluoro-3-iodophenyl)-2,3,5,9-tetrahydro-4H-pyrano[3,4-b]thieno[2,3-e]pyridin-8(7H)-one 1,1-dioxide] | 2.1 | – | – | – | – | Emax (Landrace Pig Bladder): 95%; EC50 (Landrace Pig Bladder): 50.1 nM; EC50 ([1]; Cavia porcellus): 0.64 nM; Emax ([1]; Cavia porcellus): 105% |
| Cl.O=C1CCC2=C1C(c1ccc(F)c(Cl)c1)C1=C(CNCC1=O)N2 (stereo not drawn) [Example 38, 5-(3-chloro-4-fluorophenyl)-2,3,5,7,8,9-hexahydro-1H-cyclopenta[b][1,7]naphthyridine-4,6-dione Hydrochloride] | 0.024 | – | – | – | – | Emax (Landrace Pig Bladder): 80%; EC50 (Landrace Pig Bladder): 5010 nM; EC50 ([1]; Cavia porcellus): 390 nM; Emax ([1]; Cavia porcellus): 82% |
| Cl.O=C1CNCC2=C1C(c1ccc(F)c(Br)c1)C1=C(COC1=O)N2 (stereo not drawn) [Example 39, 9-(3-bromo-4-fluorophenyl)-5,6,7,9-tetrahydrofuro[3,4-b][1,7]naphthyridine-1,8(3H,4H)-dione Hydrochloride] | – | – | – | – | – | Index (Landrace Pig Bladder; Hydrochloride): 0.036; Emax (Landrace Pig Bladder): 96%; pD2 (Landrace Pig Bladder; Hydrochloride): 5.6; Maximal Response (% P1075) ([1]; Hydrochloride): 80 % P1075; EC50 ([1]; Hydrochloride): 680 nM |
| Cl.O=C1CNCC2=C1C(c1ccc(F)c(Br)c1)C1=C(COC1=O)N2 (stereo not drawn) [Example 40, 9-(3-bromo-4-fluorophenyl)-5,6,7,9-tetrahydrofuro [3,4-b][1,7]naphthyridine-1,8(3H,4H)-dione hydrochloride] | – | – | – | – | – | Index (Landrace Pig Bladder; Hydrochloride): 0.13; Efficacy (% P1075) (Landrace Pig Bladder; Hydrochloride): 91 % P1075; pD2 (Landrace Pig Bladder; Hydrochloride): 6.0; Maximal Response (% P1075) ([1]; Hydrochloride): 111 % P1075; EC50 ([1]; Hydrochloride): 320 nM |
| O=C1CCCC2=C1C(c1ccc(F)c(Br)c1)C1=C(CSCC1=O)N2 (stereo not drawn) [Example 50, 5-(3-bromo-4-fluorophenyl)-5,8,9,10-tetrahydro-1H-thiopyrano[3,4-b]quinoline-4,6(3H,7H)-dione] | 0.28 | – | – | – | – | Emax (Landrace Pig Bladder): 96%; EC50 (Landrace Pig Bladder): 631 nM; EC50 ([1]; Cavia porcellus): 84 nM; Emax ([1]; Cavia porcellus): 108% |
| O=C1COCC2=C1C(c1ccc(F)c(Br)c1)C1=C(CCNC1=O)N2 (stereo not drawn) [Example 52, 10-(3-bromo-4-fluorophenyl)-3,4,6,10-tetrahydro-2H-pyrano[3,4-b][1,6]naphthyridine-1,9(5H,8H)-dione] | 0.069 | – | – | – | – | Emax (Landrace Pig Bladder): 99%; EC50 (Landrace Pig Bladder): 5010 nM; EC50 ([1]; Cavia porcellus): 380 nM; Emax ([1]; Cavia porcellus): 105% |
| Cc1ccc(C2C3=C(COCC3=O)NC3=C2C(=O)COC3)cc1Br [Example 53, 5-(3-bromo-4-methylphenyl)-5,10-dihydro-1H,3H-dipyrano[3,4-b:4,3-e]pyridine-4,6(7H,9H)-dione] | 0.44 | 100 | 7.0 | 98 | 19 | – |
| Cc1ccc(C2C3=C(COCC3=O)NC3=C2C(=O)COC3)cc1I [Example 54, 5-(3-iodo-4-methylphenyl)-5,10-dihydro-1H,3H-dipyrano[3,4-b:4,3-e]pyridine-4,6(7H,9H)-dione] | 0.48 | 100 | 6.9 | 101 | 9.5 | – |
| O=C1COCC2=C1C(c1ccc(Br)c(Br)c1)C1=C(COCC1=O)N2 [Example 55, 5-(3,4-dibromonhenyl)-5,10-dihydro-1H,3H-dipyrano [3,4-b:4,3-e]pyridine-4,6(7H,9H)-dione] | 0.35 | 80 | 6.2 | 108 | 3.9 | – |
| O=C1COCC2=C1C(c1ccc(F)c(-c3ccco3)c1)C1=C(COCC1=O)N2 [Example 57, 5-[4-fluoro-3-(2-furyl)phenyl]-5,10-dihydro-1H,3H-dipyrano[3,4-b:4,3-e]pyridine-4,6(7H,9H)-dione] | 0.090 | 45 | 5.6 | 69 | 4000 | – |
| O=C1COCC2=C1C(c1cc(Br)c(F)cc1O)C1=C(COCC1=O)N2 [Example 58, 5-(5-bromo-4-fluoro-2-hydroxyphenyl)-5,10-dihydro-1H,3H-dipyrano[3,4-b:4,3-e]pyridine-4,6(7H,9H)-dione] | 0.19 | 84 | 6.2 | 94 | 46 | – |
| Cc1ccc(C2C3=C(COCC3=O)NC3=C2C(=O)COC3)cc1[N+](=O)[O-] [Example 59, 5-(4-methyl-3-nitrophenyl)-5,10-dihydro-1H,3H-dipyrano[3,4-b:4,3-e]pyridine-4,6(7H,9H)-dione] | 0.17 | 73 | 5.9 | 94 | 99 | – |
| C=C(C)c1cc(C2C3=C(COCC3=O)NC3=C2C(=O)COC3)ccc1F [Example 64, 5-(4-fluoro-3-isopropenylphenyl)-5,10-dihydro-1H,3H-dipyrano[3,4-b:4,3-e]pyridine-4,6(7H,9H)-dione] | 0.031 | 95 | 5.5 | 84 | 250 | – |
